Measured values published in patent publication US10913738B2 (BRISTOL-MYERS SQUIBB COMPANY, priority 2017, dated 2021).
Where two headings read alike, the source gives them in different places.

What was measured:
[1] = biological target: T1, His-GST-TVMV-hRIPK1(1-324) (Homo sapiens, UniProt Q13546); assay: RIPK1 HTRF Binding Assay
T1 construct: The coding region of human RIPK1(1-324) flanked by NdeI site at 5′ end; made in house; host or cells: Spodoptera frugiperda (Sf9) insect cells, baculovirus
T1 sequence (Q13546 1-324): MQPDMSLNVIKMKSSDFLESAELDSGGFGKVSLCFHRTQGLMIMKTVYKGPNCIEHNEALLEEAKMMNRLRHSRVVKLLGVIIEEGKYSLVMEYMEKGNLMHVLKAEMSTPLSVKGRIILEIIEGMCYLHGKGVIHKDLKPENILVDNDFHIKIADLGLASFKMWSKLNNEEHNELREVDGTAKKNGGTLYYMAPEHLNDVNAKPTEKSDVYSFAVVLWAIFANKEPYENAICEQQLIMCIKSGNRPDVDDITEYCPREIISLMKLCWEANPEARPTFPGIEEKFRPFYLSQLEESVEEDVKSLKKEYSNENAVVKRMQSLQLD

[2] = system: MLKL phosphorylation in HT29-L23 human colorectal adenocarcinoma cells; assay: MLKL Phosphorylation High-Content Assay; format: cell-based; details: Homo sapiens
Method in brief: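 IC50 and Ymax obtained by 4-parameter logistic fitting of MLKL phosphorylation, measured as mean circ-ring average intensity ratio from high-content images. Staining used an anti-phospho-S358 MLKL antibody overnight at 4° C., following six-hour cell incubation at 37° C.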

[3] = x marks IC50 class <20 nM, read-out: RIPK1 HTRF binding <20 nM
[4] = x marks IC50 class <20 nM, read-out: pMLKL cell activity <20 nM
[5] = x marks IC50 class 20-200 nM, read-out: RIPK1 HTRF binding 20-200 nM
[6] = x marks IC50 class >200 nM, read-out: pMLKL cell activity >200 nM
[7] = x marks IC50 class 20-200 nM, read-out: pMLKL cell activity 20-200 nM

Structure (SMILES)	IC50 [1, 3] [nM]	IC50 [1, 5] [nM]	IC50 [2, 7] [nM]	other results
Cc1ncc(-c2ccn3nc(N)nc3c2)cc1C(=O)NCc1ccccc1OC1CCCC1 [Example 249, 5-{2-amino-[1,2,4]triazolo[1,5-a]pyridin-7-yl}-N-{[2-(cyclopentyloxy)phenyl]methyl}-2-methylpyridine-3-carboxamide]	< 20			IC50 [2, 4]: < 20 nM
COc1ncc(-c2ccn3nc(N)nc3c2)cc1C(=O)N1CCOC(Cc2ccccc2)C1 (centres unmarked) [Example 428, (5-(2-amino-[1,2,4]triazolo[1,5-a]pyridin-7-yl)-2-methoxypyridin-3-yl)(2-benzylmorpholino)methanone]		20 to 200		IC50 [2, 6]: > 200 nM
[2H]C([2H])(NC(=O)c1cc(-c2ccn3nc(N)nc3c2)cnc1OC)c1ccccc1OC(F)(F)F [Example 2, 5-{2-Amino-[1,2,4]triazolo[1,5-a]pyridin-7-yl}-2-methoxy-N-{[2-(trifluoromethoxy)phenyl](^2H)methyl}pyridine-3-carboxamide]		20 to 200	20 to 200	
COc1ncc(-c2ccn3nc(N)nc3c2)cc1C(=O)NCc1cccnc1OC1CCCC1 [Example 135, 5-{2-amino-[1,2,4]triazolo[1,5-a]pyridin-7-yl}-N-{[2-(cyclopentyloxy)pyridin-3-yl]methyl}-2-methoxypyridine-3-carboxamide]	< 20			IC50 [2, 4]: < 20 nM
COc1ncc(-c2ccn3nc(N)nc3c2)cc1C(=O)NCc1cccc(F)c1CN1CCOCC1 [Example 365, 5-(2-amino-[1,2,4]triazolo[1,5-a]pyridin-7-yl)-N-(3-fluoro-2-(morpholinomethyl)benzyl)-2-methoxynicotinamide]		20 to 200		IC50 [2, 6]: > 200 nM
Cc1cnc(-c2ccn3nc(N)nc3c2)nc1C(=O)N[C@H](C)c1cc(C(F)(F)F)ccc1F [Example 409, (R)-2-(2-amino-[1,2,4]triazolo[1,5-a]pyridin-7-yl)-N-(1-(2-fluoro-5-(trifluoromethyl)phenyl)ethyl)-5-methylpyrimidine-4-carboxamide]		20 to 200	20 to 200	
COc1nc(C)c(-c2ccn3nc(N)nc3c2)cc1C(=O)NCc1ccccc1OCC1CC1 [Example 221, 5-{2-amino-[1,2,4]triazolo[1,5-a]pyridin-7-yl}-N-{[2-(cyclopropylmethoxy)phenyl]methyl}-2-methoxy-6-methylpyridine-3-carboxamide]	< 20			IC50 [2, 4]: < 20 nM
[2H]C([2H])([2H])Oc1ncc(-c2ccn3nc(N)nc3c2)cc1C(=O)NCc1ccccc1OC(F)(F)F [Example 90, 5-{2-amino-[1,2,4]triazolo[1,5-a]pyridin-7-yl}-2-(deutero)methoxy-N-{[2-(trifluoromethoxy)phenyl]methyl}pyridine-3-carboxamide]	< 20		20 to 200	
Cc1ncc(-c2ccn3nc(N)nc3c2)cc1C(=O)NCc1cccnc1OC1CCCC1 [Example 240, 5-{2-amino-[1,2,4]triazolo[1,5-a]pyridin-7-yl}-N-{[2-(cyclopentyloxy)pyridin-3-yl]methyl}-2-methylpyridine-3-carboxamide]	< 20		20 to 200	
CC(C)Oc1ccccc1CNC(=O)c1cc(-c2ccn3nc(N)nc3c2)cnc1N [Example 55, 2-Amino-5-{2-amino-[1,2,4]triazolo[1,5-a]pyridin-7-yl}-N-{[2-(propan-2-yloxy)phenyl]methyl}pyridine-3-carboxamide]	< 20		20 to 200	
COc1nc(C)c(-c2ccn3nc(N)nc3c2)cc1C(=O)NCc1cccc(OCC2CC2)c1 [Example 200, 5-{2-amino-[1,2,4]triazolo[1,5-a]pyridin-7-yl}-N-{[3-(cyclopropylmethoxy)phenyl]methyl}-2-methoxy-6-methylpyridine-3-carboxamide]		20 to 200	20 to 200	
COc1ncc(-c2ccn3nc(N)nc3c2)cc1C(=O)NCc1ccccc1OC1CCOC1 (centres unmarked) [Example 140, 5-{2-amino-[1,2,4]triazolo[1,5-a]pyridin-7-yl}-2-methoxy-N-{[2-(oxolan-3-yloxy)phenyl]methyl}pyridine-3-carboxamide]	< 20		20 to 200	
[2H]C([2H])(NC(=O)c1cc(-c2ccn3nc(N)nc3c2)cnc1Cl)c1cc(OC(F)(F)F)ccc1F [Example 171, 5-{2-amino-[1,2,4]triazolo[1,5-a]pyridin-7-yl}-2-chloro-N-{[2-fluoro-5-(trifluoromethoxy)phenyl](deutero)methyl}pyridine-3-carboxamide]		20 to 200	20 to 200	
COc1ncc(-c2ccn3nc(N)nc3c2)cc1C(=O)NCc1ccc(F)cc1OCC1CC1 [Example 145, 5-{2-amino-[1,2,4]triazolo[1,5-a]pyridin-7-yl}-N-{[2-(cyclopropylmethoxy)-4-fluorophenyl]mehtyl}-2-methoxypyridine-3-carboxaamide]	< 20		20 to 200	
Cc1ncc(-c2ccn3nc(N)nc3c2)cc1C(=O)NCc1cc(F)cc(F)c1OCC1CCCC1 [Example 232]	< 20		20 to 200	
Cc1ncc(-c2ccn3nc(N)nc3c2)cc1C(=O)NCC(C)(O)Cc1ccc(F)cc1 (centres unmarked) [Example 421, 5-(2-amino-[1,2,4]triazolo[1,5-a]pyridin-7-yl)-N-(3-(4-fluorophenyl)-2-hydroxy-2-methylpropyl)-2-methylnicotinamide]		20 to 200		IC50 [2, 6]: > 200 nM
[2H]C([2H])(NC(=O)c1cc(-c2ccn3nc(N)nc3c2)c(C)nc1OC)c1cc(C(F)(F)F)ccc1F [Example 331, 5-(2-amino-[1,2,4]triazolo[1,5-a]pyridin-7-yl)-N-((2-fluoro-5-(trifluoromethyl)phenyl)methyl-d2)-2-methoxy-6-methylnicotinamide]	< 20		20 to 200	
Cc1ncc(-c2ccn3nc(N)nc3c2)cc1C(=O)NCc1c(F)cccc1OCC1CC1 [Example 245, 5-{2-amino-[1,2,4]triazolo[1,5-a]pyridin-7-yl}-N-{[2-(cyclopropylmethoxy)-6-fluorophenyl]methyl}-2-methylpyridine-3-carboxamide]	< 20		20 to 200	
Cc1ncc(-c2ccn3nc(N)nc3c2)cc1C(=O)NCc1ccccc1OCC1CCCCC1 [Example 230, 5-{2-amino-[1,2,4]triazolo[1,5-a]pyridin-7-yl}-N-{[2-(cyclohexylmethoxy)phenyl]methyl}-2-methylpyridine-3-carboxamide]	< 20		20 to 200	
[2H]C([2H])([2H])[C@@H](NC(=O)c1cc(-c2ccn3nc(N)nc3c2)cnc1C)c1cccc(OC(F)(F)F)c1 [Example 311, (R)-5-(2-amino-[1,2,4]triazolo[1,5-a]pyridin-7-yl)-2-methyl-N-(1-(3-(trifluoromethoxy)phenyl)ethyl-2,2,2-H3)nicotinamide]		20 to 200		IC50 [2, 6]: > 200 nM
[2H]C([2H])(NC(=O)c1cc(-c2ccn3nc(N)nc3c2)cnc1C)c1cc(OC(F)(F)F)ccc1F [Example 252, 5-{2-amino-[1,2,4]triazolo[1,5-a]pyridin-7-yl}-N-{[2-fluoro-5-(trifluoromethoxy)phenyl](deutero)methyl}-2-methylpyridine-3-carboxamide]	< 20			IC50 [2, 4]: < 20 nM
COc1ncc(-c2ccn3nc(N)nc3c2)cc1C(=O)N1CCOC(c2ccccc2)C1 (centres unmarked) [Example 425]				IC50 ([1]; x marks IC50 class >200 nM, read-out: RIPK1 HTRF binding >200 nM): > 200 nM; IC50 [2, 6]: > 200 nM
